This note sets out measurements from patent publication US20050209295A1, “Methimazole derivatives and tautomeric cyclic thiones to inhibit cell adhesion” (priority 2004, published 2005).

Type in all cases: cell-based, human
Assay [1] relates to IRF-1. Nature of the assay: TNF-alpha-induced IRF-1 RNA levels (Northern blot). The conditions noted are these: mean ± SD. The procedure:
(§1) Cell culture and treatment of HAEC: Human aortic endothelial cells (HAEC; Cambrex Bio Science Walkersville, Inc., Walkersville, Md.) are cultured in M199 supplemented with 8% FBS, 100 μg/ml heparin, 10 ng/ml endothelial growth factor, 100 μg/ml hypothalamus extract, 2 mM L-glutamine, 1% non-essential amino acids, 100 units/ml penicillin and 100 μg/ml streptomycin. HAEC are subcultured on gelatin pre-coated: 96-well tissue culture plates (Corning Incorporated; Corning, N.Y.) for viability assays and ELISA; 100-mm tissue culture dishes (BD Falcon; Franklin Lakes, N.J.) for Northern blot analyses, Western blot analyses and EMSA; 35-mm tissue culture dishes (Corning) for adhesion assays and on 24-well tissue culture plates for luciferase promoter assays (BD Falcon). All experiments are performed with confluent HAEC monolayers. Unless noted otherwise, HAEC are treated with 25 ng/ml TNF-α, in the absence or presence of C-10 or 0.25% DMSO (carrier control for C-10), for 2-24 hrs. The concentration of DMSO is held constant at 0.25% (unless indicated otherwise) for all of the C-10 conditions.
(§2) HAEC are washed with PBS and total RNA extracted using a commercial kit (RNeasy Mini Kit; Qiagen Inc.; Valencia, Calif.). 12 μg of total RNA per lane is resolved on 1% denaturing agarose gels containing 0.66M formaldehyde. Gels are capillary blotted on Nytran membranes (Schleicher and Schuell Inc.; Keene, N.H.), UV cross-linked, and used for hybridization. The probe for IRF-1 has been previously described (33). The G3PDH cDNA is from Clontech (Palo Alto, Calif.). […]; cDNAs are labeled with α-^32P-dCTP using the Ladderman Labeling Kit (Takara Biochemical Inc.; Berkeley, Calif.) (33). Northern blots are developed using a BAS 1500 Bioimaging Analyzer (Fuji Photo Film Co., Ltd. Medical Systems USA Inc.; Stanford, Calif.). Each experiment is replicated at least twice.

The subject of a further assay is VCAM-1. Description: TNF-alpha-induced VCAM-1 RNA levels in aortic endothelial cells (Northern blot). The conditions noted are these: aortic endothelial cells, mean ± SD. As for the experimental part: as §1, §2
A further assay has as its system VCAM-1 promoter. Description: TNF-alpha-induced VCAM-1 promoter activity, dual luciferase reporter assay in HAEC. The conditions noted are these: hVCAM-1(−228 to +12)-luciferase construct, mean ± SD; for inhibition at 5000 µM: Homo sapiens. As for the experimental part: as §1
Dual Luciferase Assay: Four human VCAM-1 promoter deletion constructs of different length, −1641/+12, −288/+12, −228/+12, −85/+12 bp are amplified by PCR from human genomic DNA. Each upstream primer contained a restriction endonuclease Mlu I site located at the 5′-end of the primer. The downstream primer corresponding to the +12 end contained a restriction endonuclease Xho I site at the 5′-end. The PCR products are digested by Mlu I and Xho I (New England Biolabs Inc., Beverly, Mass.) and ligated into a similarly digested pGL3 basic luciferase reporter vector (Promega, Madison, Wis.). Cells are transfected for 24 hrs. with 400 ng of indicated constructs, or pGL3 basic luciferase reporter vector as control, using GeneJuice transfection reagent (Novagen Inc., Madison, Wis.). All cells are also transfected with phRL-TK (Int−) vector (Promega), which contains wildtype Renilla luciferase (Rluc) as an “internal” transfection control. Luciferase assays are conducted with the Dual-Luciferase Reporter Assay System (Promega) on a Lumat LB 9507 tube luminometer. In every experiment, each condition is run in triplicate wells. Each experiment is replicated at least twice.
(In general: A reporter such as luciferase makes a cellular process visible.)

For assay [2], the system named is IRF-1. Nature of the assay: TNF-alpha-induced IRF-1 protein levels (Western blot). The conditions noted are these: mean ± SD. As for the experimental part:
as §1
Western blot analysis: Whole cell lysates are prepared in lysis buffer (150 mM NaCl, 1% IGEPAL CA-630, 50 mM Tris-HCL pH 8.0). 20 μg of lysates are then resolved on 4-12% Bis-Tris PAGE gels under denaturing conditions using the NuPAGE Bis-Tris System (Invitrogen; Carlsbad, Calif.). Proteins are transferred to nitrocellulose membranes, which are probed with IRF-1 antibody. Subsequent binding of HRP conjugated goat anti-rabbit Ab (sc-2054, Santa Cruz Biotechnology, Inc.) is detected using Lumigen PS-3 detection reagents (Amersham Pharmacia Biotech.; Piscataway, N.J.).

By inhibition is commonly meant the drop in the measured response relative to a control, in per cent. Read a high inhibition as a strong effect. As for `Sc1ncc[nH]1` [2-mercaptoimidazole, 2-Mercaptoimidazole], the “% INIHIBITION of TNF-alpha-induced IRF-1 RNA levels” value (“% INIHIBITION” below) with IRF-1 [1] (5 mM), with IRF-1 [1] (10 :M) and in the assay with IRF-1 [1] (100 :M) was 0% in each case. In addition, the “% INHIBITION of TNF-alpha-induced VCAM-1 RNA levels” value in the assay on VCAM-1 (5.0 mM), in the assay on VCAM-1 (10 :M) and with VCAM-1 (100 :M) was “None” throughout. This molecule returned an inhibition at 5000 µM in the assay with VCAM-1 promoter (5.0 mM) of 0%.
Consider `Cc1cnc(S)n1C` [5-methylmethimazole, 5-Methylmethimazole], for which the “% INHIBITION of TNF-alpha-induced VCAM-1 promoter activity” value with VCAM-1 promoter (10 :M) and in the assay with VCAM-1 promoter (100 :M) was 0% in each case. Also, at 5000 µM the inhibition in the assay with VCAM-1 promoter (5.0 mM) was 14 ± 8%.
Regarding `Cc1ccc2[nH]c(S)nc2c1` [2-mercapto-5-methylbenzimididazole, 2-Mercapto-5-methylbenzimidazole], in the assay with VCAM-1 (5.0 mM), the “% INHIBITION of TNF-alpha-induced VCAM-1 RNA levels” value is given as 11 ± 7%.
As to `Cn1ccn(C)c1=S` [N-methylmethimazole, N-Methylmethimazole], the “% INIHIBITION” value is listed as 75 ± 14% in the assay on IRF-1 [1] (5 mM), 0% with IRF-1 [1] (10 :M) and 34 ± 15% in the assay with IRF-1 [1] (100 :M). The “% INHIBITION of TNF-alpha-induced VCAM-1 RNA levels” value with VCAM-1 (5.0 mM) is recorded as 47 ± 12%; in the assay on VCAM-1 (10 :M) it was 0%; with VCAM-1 (100 :M) it was 31 ± 10%. The “% INHIBITION of TNF-alpha-induced VCAM-1 promoter activity” value is on record as 6 ± 2% in the assay with VCAM-1 promoter (10 :M) and 44 ± 11% with VCAM-1 promoter (100 :M). The inhibition at 5000 µM with VCAM-1 promoter (5.0 mM) stood at 31 ± 3%.
For the molecule `Sc1nc2ccccc2[nH]1` [2-mercaptobenzimidazole, 2-Mercaptobenzimidazole], the “% INHIBITION of TNF-alpha-induced VCAM-1 RNA levels” value in the assay on VCAM-1 (5.0 mM) was 26 ± 10%; in the assay on VCAM-1 (10 :M) it was 0%; in the assay on VCAM-1 (100 :M) it was 0%. Moreover, the “% INHIBITION of TNF-alpha-induced VCAM-1 promoter activity” value in the assay on VCAM-1 promoter (10 :M) and in the assay on VCAM-1 promoter (100 :M) was 0% each time. The molecule further had an inhibition at 5000 µM in the assay with VCAM-1 promoter (5.0 mM) of 30 ± 4%.
Consider “1-Methyl-2-Thiomethyl-5(4)nitroimidazole”, for which the entries for the “% INHIBITION of TNF-alpha-induced IRF-1 Protein levels” value in the assay with IRF-1 [2] (5 mM), in the assay with IRF-1 [2] (10 :M) and in the assay on IRF-1 [2] (100 :M) were 95 ± 12%, 46 ± 15% and 69 ± 10%, respectively. Moreover, the “% INIHIBITION” value in the assay on IRF-1 [1] (5 mM) was 95 ± 12%; in the assay with IRF-1 [1] (10 :M), 26 ± 12%; in the assay with IRF-1 [1] (100 :M) it was 64 ± 16%. Also, the “% INHIBITION of TNF-alpha-induced VCAM-1 RNA levels” value was found to be 92 ± 5% with VCAM-1 (5.0 mM), 34 ± 6% in the assay on VCAM-1 (10 :M) and 83 ± 10% in the assay on VCAM-1 (100 :M). The “% INHIBITION of TNF-alpha-induced VCAM-1 promoter activity” value in the assay with VCAM-1 promoter (5.0 mM) stood at 58 ± 6%; in the assay on VCAM-1 promoter (10 :M), 29 ± 6%; with VCAM-1 promoter (100 :M), 54 ± 10%.
Turning to `Cn1ccnc1S` [Methimazole, 1-Methylimidazole-2-thiol], the “% INHIBITION of TNF-alpha-induced IRF-1 Protein levels” value in the assay with IRF-1 [2] (10 :M) and in the assay on IRF-1 [2] (100 :M) was 0% each time. Also, the inhibition at 5000 µM in the assay with IRF-1 [2] (Homo sapiens, 5 mM) is 17 ± 6%; in the assay with VCAM-1 promoter (5.0 mM), 0%. Further, the “% INIHIBITION” value came to 27 ± 12% with IRF-1 [1] (5 mM), 0% in the assay on IRF-1 [1] (10 :M) and 0% with IRF-1 [1] (100 :M). Moreover, the “% INHIBITION of TNF-alpha-induced VCAM-1 RNA levels” value in the assay on VCAM-1 (5.0 mM) came out at 20 ± 10%; in the assay with VCAM-1 (10 :M), 0%; with VCAM-1 (100 :M), 0%.
